Experimental data from patent US5612476A, “Anti-endotoxin compounds” (priority 1995, dated 1997).
Where “and” joins values, the source holds several entries; their conditions need not be identical. Equal entries are not always repeated.

Columns and labels:
human monocytes = assay: In vitro inhibition of LPS-induced TNF production in human monocytes (ELISA); format: cell-based; settings: Monocyte, E. coli 0111:B4 LPS 10 ng/ml, 3 h, read-out: ED50 for inhibition of LPS-induced production of TNF
Method: Both bacterial LPS and bacterial lipid A elicit production of tumor necrosis factor (TNF) and IL-1β in cultured human monocytes (J. Immunol. 139:429, 1987).
Monocytes were isolated from human blood by Percoll density gradient centrifugation, plated at approximately 1×10^6 cells/well on a 48-well plate in RPMI 1640 medium (GIBCO, Grand Island, N.Y.) containing 10% human serum (Sigma Chemical Co., St. Louis, Mo.) and incubated for two to three hours. Bacterial LPS (i.e., from E. coli 0111:B4; Sigma Chemicals, St. Louis, Mo.) at 10 ng/ml or lipid A (Daiichi Chemicals, Tokyo, Japan) at 1.0 ng/ml in RPMI 1640 medium were combined with 0.45 ml of RPMI 1640 medium containing 1% human serum and added to the cultured monocytes. In experiments involving a lipid A analog, the analog was added immediately before addition of LPS or lipid A in varying concentrations (e.g., between 0 and 100 μM in a 50 μl aliquot). Following a three-hour incubation period, a 0.1 ml aliquot of the culture supernatant was assayed for the presence of TNF and IL-1β. TNF and IL-1β were assayed using the ELISA assay of R & D Systems (Minneapolis, Minn.) and the instructions of the manufacturer, however, any other standard ELISA kits may be utilized, for example, the kit available from Genzyme, Cambridge, Mass. Experiments were performed in triplicate.

guinea pig macrophages = assay: cells; format: cell-based, Hartley-White guinea pig; settings: for inhibition of LPS-induced TNF production: guinea pig macrophages, LPS 10 ng/ml, in words
mouse macrophages = assay: cells; format: cell-based, C57BL/6 mouse; settings: for inhibition of LPS-induced TNF production: mouse macrophages, LPS 10 ng/ml, in words
[1] = test system: LPS-induced TNF production; set-up: species or system C57BL/6 mice; settings: mouse, iv
[2] = test system: LPS-induced TNF production; assay: In vivo inhibition of LPS-induced TNF production in guinea pigs; settings: optimum ED50's
HIV LTR = assay: Suppression of LPS-stimulated HIV LTR activation in stably transfected U938 cell line (HIV-1 LTR-CAT); settings: Human immunodeficiency virus 1, 24 h, read-out: IC50 for suppression of LPS-stimulated HIV LTR activation
Method: Experiments were carried out using one such stably-transfected cell line, i.e., the U938 cell line of Latham et al. (Cell. Immunol. 129:513, 1990). Cells were cultured as described in Latham et al. (1990, supra), and 10^6 cells were treated with a lipid A analog (at a concentration of between 0.0 and 1.0 μM). Thirty minutes after addition of the analog, cells were treated with phorbol myristate acetate (at a concentration of 0.33 ng/ml; described above) and E. coli 0111:B4 LPS (at a concentration of 33 ng/ml; described above). Cells were cultured for an additional 24 hours, harvested, and assayed for CAT activity as described above.

For `CCCCCC/C=C\CCCC(=O)O[C@H](CCCCCCC)CCO[C@@H]1[C@@H](NC(=O)CC(=O)CCCCCCCCCCC)[C@H](OC[C@H]2O[C@H](OP(=O)(O)O)[C@H](NC(=O)CC(=O)CCCCCCCCCCC)[C@@H](OCC[C@H](O)CCCCCCC)[C@@H]2O)O[C@H](COC)[C@H]1OP(=O)(O)O` [Analog B531-35], the IC50 (human monocytes) was ~0.02 nM, the IC50 (guinea pig macrophages; Cavia porcellus, Macrophage, 3 h, read-out: ED50 for inhibition of LPS-induced TNF production) was 0.66 nM and the IC50 (mouse macrophages; Mus musculus, Macrophage, 3 h, read-out: ED50 for inhibition of LPS-induced TNF production) was 2.26 nM. For the same compound, the “ED50 for inhibition of TNF production in vivo” value [1] was 16.2 μg/mouse.
For `CCCCCC/C=C\CCNC(=O)O[C@H](CCCCCCC)CC(=O)O[C@@H]1[C@@H](NC(=O)CC(=O)CCCCCCCCCCC)[C@H](OC[C@H]2O[C@H](OP(=O)(O)O)[C@H](NC(=O)CC(=O)CCCCCCCCCCC)[C@@H](OC(=O)C[C@H](O)CCCCCCC)[C@@H]2O)O[C@H](CO)[C@H]1OP(=O)(O)O` [Analog B379-32], the “inhibition of TNF production in vivo” value [1] was “inhibited TNF production”.
With `CCCCCC/C=C\CCCC(=O)O[C@H](CCCCCCC)CC(=O)O[C@@H]1[C@@H](NC(=O)CS(=O)(=O)CCCCCCCCCCC)[C@H](OC[C@H]2O[C@H](OP(=O)(O)O)[C@H](NC(=O)CS(=O)(=O)CCCCCCCCCCC)[C@@H](OC(=O)C[C@H](O)CCCCCCC)[C@@H]2O)O[C@H](CO)[C@H]1OP(=O)(O)O` [Analog B425-32] the “inhibition of TNF production in vivo” value [1] was “inhibited TNF production”.
`CCCCCC/C=C\CCCC(=O)O[C@H](CCCCCCC)CC(=O)O[C@@H]1[C@@H](NC(=O)CC(=O)CCCCCCCCCCC)[C@H](OC[C@H]2O[C@H](OP(=O)(O)O)[C@H](NC(=O)CC(=O)CCCCCCCCCCC)[C@@H](OCC[C@H](O)CCCCCCC)[C@@H]2O)O[C@H](CO)[C@H]1OP(=O)(O)O` [Analog B410-32] was tested, and the “inhibition of LPS-induced TNF production” value (guinea pig macrophages) was “inhibited LPS-induced TNF production”, the “inhibition of LPS-induced TNF production” value (mouse macrophages) was “inhibited LPS-induced TNF production” and the “inhibition of TNF production in vivo” value [1] was “inhibited TNF production”.
For `CCCCCC/C=C\CCCC(=O)O[C@H](CCCCCCC)CCO[C@@H]1[C@@H](NC(=O)C[S+]([O-])CCCCCCCCCCC)[C@H](OC[C@H]2O[C@H](OP(=O)(O)O)[C@H](NC(=O)C[S+]([O-])CCCCCCCCCCC)[C@@H](OCC[C@H](O)CCCCCCC)[C@@H]2O)O[C@H](CO)[C@H]1OP(=O)(O)O` (stereo partly shown) [Analog B459-32], the “inhibition of LPS-induced TNF production” value (guinea pig macrophages) was “inhibited LPS-induced TNF production” and the “inhibition of LPS-induced TNF production” value (mouse macrophages) was “inhibited LPS-induced TNF production”.
With `CCCCCC/C=C\CCCC(=O)O[C@H](CCCCCCC)CC(=O)O[C@@H]1[C@@H](NC(=O)CC(=O)CCCCCCCCCCC)[C@H](OC[C@H]2O[C@H](OP(=O)(O)O)[C@H](NC(=O)CC(=O)CCCCCCCCCCC)[C@@H](OC(=O)C[C@H](O)CCCCCCC)[C@@H]2O)O[C@H](CO)[C@H]1OP(=O)(O)O` [Analog B214-32] the “inhibition of LPS-induced TNF production” value (guinea pig macrophages) was “inhibited LPS-induced TNF production”, the “inhibition of LPS-induced TNF production” value (mouse macrophages) was “inhibited LPS-induced TNF production” and the “inhibition of TNF production in vivo” value [1] was “inhibited TNF production”. The “optimum ED50 for inhibition of LPS-induced TNF production in vivo” value [2] was 7.5 μg/guinea pig and 5 μg/guinea pig.
For `CCCCCC/C=C\CCCC(=O)O[C@H](CCCCCCC)CCO[C@@H]1[C@@H](NC(=O)CC(=O)CCCCCCCCCCC)[C@H](OC[C@H]2O[C@H](OP(=O)(O)O)[C@H](NC(=O)CC(=O)CCCCCCCCCCC)[C@@H](OCC[C@H](O)CCCCCCC)[C@@H]2O)O[C@H](CO)[C@H]1OP(=O)(O)O` [Analog B427-32], the “inhibition of LPS-induced TNF production” value (guinea pig macrophages) was “inhibited LPS-induced TNF production”, the “inhibition of LPS-induced TNF production” value (mouse macrophages) was “inhibited LPS-induced TNF production” and the IC50 (HIV LTR) was 15 to 260 nM.
In the case of `CCCCCC/C=C\CCCCO[C@H](CCCCCCC)CC(=O)O[C@@H]1[C@@H](NC(=O)CC(=O)CCCCCCCCCCC)[C@H](OC[C@H]2O[C@H](OP(=O)(O)O)[C@H](NC(=O)CC(=O)CCCCCCCCCCC)[C@@H](OC(=O)C[C@H](O)CCCCCCC)[C@@H]2O)O[C@H](CO)[C@H]1OP(=O)(O)O` [Analog B294-32], the “inhibition of TNF production in vivo” value [1] is reported as “inhibited TNF production”.
In the case of `CCCCCC/C=C\CCCC(=O)O[C@H](CCCCCCC)CC(=O)O[C@@H]1[C@@H](NC(=O)CC(=O)CCCCCCCCCCC)[C@H](OC[C@H]2O[C@H](OP(=O)(O)O)[C@H](NC(=O)/C=C/CCCCCCCCCCC)[C@@H](OC(=O)C[C@H](O)CCCCCCC)[C@@H]2O)O[C@H](CO)[C@H]1OP(=O)(O)O` [Analog B313-32], the “inhibition of TNF production in vivo” value [1] is reported as “inhibited TNF production”.
In the case of `CCCCCC/C=C\CCCC(=O)O[C@H](CCCCCCC)CC(=O)O[C@@H]1[C@@H](NC(=O)/C=C/CCCCCCCCCCC)[C@H](OC[C@H]2O[C@H](OP(=O)(O)O)[C@H](NC(=O)/C=C/CCCCCCCCCCC)[C@@H](OC(=O)C[C@H](O)CCCCCCC)[C@@H]2O)O[C@H](CO)[C@H]1OP(=O)(O)O` [Analog B286-32], the “inhibition of TNF production in vivo” value [1] is reported as “inhibited TNF production”.
With `CCCCCC/C=C\CCCC(=O)O[C@H](CCCCCCC)CC(=O)O[C@@H]1[C@@H](NC(=O)CC(=O)CCCCCCCCCCC)[C@H](OC[C@H]2O[C@H](OP(=O)(O)O)[C@H](NC(=O)CC(=O)CCCCCCCCCCC)[C@@H](OC(=O)C[C@H](O)CCCCCCC)[C@@H]2O)O[C@H](CO)[C@H]1OP(=O)(O)O` [Analog B214-33] the “inhibition of TNF production in vivo” value [1] was “inhibited TNF production”.
`CCCCCCC/C=C/C(=O)O[C@@H]1[C@@H](NC(=O)CC(=O)CCCCCCCCCCC)[C@H](OC[C@H]2O[C@H](OP(=O)(O)O)[C@H](NC(=O)CC(=O)CCCCCCCCCCC)[C@@H](OC(=O)C[C@H](O)CCCCCCC)[C@@H]2O)O[C@H](CO)[C@H]1OP(=O)(O)O` [Analog B400-32] was tested, and the “inhibition of TNF production in vivo” value [1] was “inhibited TNF production” and the IC50 (HIV LTR) was 15 to 260 nM.
For `CCCCCC/C=C\CCCC(=O)O[C@H](CCCCCCC)CC(=O)O[C@@H]1[C@@H](NC(=O)CC(=O)CCCCCCCCCCC)[C@@H](OC[C@H]2O[C@H](OP(=O)(O)O)[C@H](NC(=O)CC(=O)CCCCCCCCCCC)[C@@H](OC(=O)C[C@H](O)CCCCCCC)[C@@H]2O)O[C@H](CO)[C@H]1OP(=O)(O)O` [Analog B426-32], the “inhibition of TNF production in vivo” value [1] was “inhibited TNF production”.
In the case of `CCCCCC/C=C\CCCC(=O)O[C@H](CCCCCCC)CC(=O)O[C@@H]1[C@@H](NC(=O)CC(=O)CCCCCCCCCCC)[C@H](OC[C@H]2O[C@H](OP(=O)(O)O)[C@H](NC(=O)C[C@H](O)CCCCCCCCCCC)[C@@H](OC(=O)C[C@H](O)CCCCCCC)[C@@H]2O)O[C@H](CO)[C@H]1OP(=O)(O)O` [Analog B218-32], the “inhibition of TNF production in vivo” value [1] is reported as “inhibited TNF production”.
With `CCCCCC/C=C\CCCC(=O)O[C@H](CCCCCCC)CCO[C@@H]1[C@@H](NC(=O)CC(=O)CCCCCCCCCCC)[C@H](OC[C@H]2O[C@H](OP(=O)(O)O)[C@H](NC(=O)CC(=O)CCCCCCCCCCC)[C@@H](OCC[C@H](O)CCCCCCC)[C@@H]2OC(C)=O)O[C@H](COC)[C@H]1OP(=O)(O)O` [Analog B718-35] the “inhibition of LPS-induced TNF production” value (guinea pig macrophages) was “inhibited LPS-induced TNF production” and the “inhibition of LPS-induced TNF production” value (mouse macrophages) was “inhibited LPS-induced TNF production”.
`CCCCCC/C=C\CCCC(=O)O[C@H](CCCCCCC)CC(=O)O[C@@H]1[C@@H](NC(=O)CC(=O)CCCCCCCCCCC)[C@H](OC[C@H]2O[C@H](OP(=O)(O)O)[C@H](NC(=O)CC(=O)CCCCCCCCCCC)[C@@H](OC(=O)C[C@H](O)CCCCCCC)[C@@H]2O)O[C@H](CO)[C@H]1OP(=O)(O)O` [Analog B214-31] was tested, and the “inhibition of TNF production in vivo” value [1] was “inhibited TNF production”.
`CCCCCC/C=C\CCCC(=O)O[C@H](CCCCCCCC)CCO[C@@H]1[C@@H](NC(=O)CC(=O)CCCCCCCCCCC)[C@H](OC[C@H]2O[C@H](OP(=O)(O)O)[C@H](NC(=O)CC(=O)CCCCCCCCCCC)[C@@H](OCC[C@H](O)CCCCCCCC)[C@@H]2O)O[C@H](COC)[C@H]1OP(=O)(O)O` [Analog B464-32] was tested, and the “inhibition of LPS-induced TNF production” value (guinea pig macrophages) was “inhibited LPS-induced TNF production” and the “inhibition of LPS-induced TNF production” value (mouse macrophages) was “inhibited LPS-induced TNF production”.
